Measured values as given in paper PMC4243055 (Cell, 2014).

Molecular target: T1, Cdc25 phosphatase (CnCdc25) (Cryptococcus neoformans, UniProt J9VTJ5)
T1 sequence (J9VTJ5 442-662): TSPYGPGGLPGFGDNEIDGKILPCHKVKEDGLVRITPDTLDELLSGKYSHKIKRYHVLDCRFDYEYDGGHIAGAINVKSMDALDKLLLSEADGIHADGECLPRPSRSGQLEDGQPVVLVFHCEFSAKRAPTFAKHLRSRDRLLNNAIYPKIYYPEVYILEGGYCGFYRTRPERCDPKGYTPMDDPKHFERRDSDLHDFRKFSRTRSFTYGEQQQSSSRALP
Assay: in vitro phosphatase assay with OMFP substrate, Michaelis-Menten kinetics
Type: biochemical

Ki: ~250 µM
Compound: O=C1C(NCCN2CCOCC2)=C(Cl)C(=O)c2ncccc21 [NSC 663284, 7-Chloro-6-(2-morpholin-4-ylethylamino)-quinoline-5,8-dione]
